Measurements as given in patent US11008335B2, “Positive allosteric modulators of the muscarinic acetylcholine receptor M4” (Vanderbilt University, priority 2016, dated 2021).
Where a name gives a salt, the structure may show the parent alone.

Target: T1, Human M4 (Homo sapiens, UniProt P08173)
T1 sequence (P08173 1-479): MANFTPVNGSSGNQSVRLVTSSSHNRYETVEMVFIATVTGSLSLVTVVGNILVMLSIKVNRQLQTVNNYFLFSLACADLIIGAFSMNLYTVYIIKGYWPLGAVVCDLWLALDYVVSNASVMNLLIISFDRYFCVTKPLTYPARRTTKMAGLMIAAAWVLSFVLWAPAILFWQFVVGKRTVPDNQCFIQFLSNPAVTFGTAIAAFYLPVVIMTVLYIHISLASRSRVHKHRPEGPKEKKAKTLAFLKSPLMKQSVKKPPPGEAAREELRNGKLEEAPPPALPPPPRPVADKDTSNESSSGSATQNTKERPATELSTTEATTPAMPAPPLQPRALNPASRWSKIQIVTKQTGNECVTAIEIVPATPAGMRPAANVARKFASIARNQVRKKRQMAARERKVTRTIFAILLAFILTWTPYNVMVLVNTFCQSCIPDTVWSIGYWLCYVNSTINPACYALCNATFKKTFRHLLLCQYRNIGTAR
Assay: mAChR M4 cell-based functional assay (calcium flux, potentiation of EC20 acetylcholine response)
Parameters: Emax: dose or concentration left out as unconfirmed
Conditions: for Emax: CHO-K1

Row | EC50 | Emax | Structure (SMILES)
1 | 0.48 µM | 80.4% | Cc1nc2sc3c(N4CC5CC5C4)nncc3c2c(C)c1Cl (stereo not drawn) [Compound 3, 8-(3-azabicyclo[3.1.0]hexan-3-yl)-3-chloro-2,4-dimethylpyrido[3′,2′:4,5]thieno[2,3-d]pyridazine]
2 | 0.54 µM | 41% | Cc1nc2sc3c(NCc4ccc(OC(F)F)cc4)nncc3c2c(C)c1Cl [Compound 4, 3-chloro-N-(4-(difluoromethoxy)benzyl)-2,4-dimethylpyrido[3′,2′:4,5]thieno[2,3-d]pyridazin-8-amine]
3 | 1.31 µM | 69.4% | COc1ccc(CNc2nncc3c2sc2nc(C)c(Cl)c(C)c23)cc1F [Compound 5, 3-chloro-N-(3-fluoro-4-methoxybenzyl)-2,4-dimethylpyrido[3′,2′:4,5]thieno[2,3-d]pyridazin-8-amine]
4 | 0.34 µM | 70% | COCCCNc1nncc2c1sc1nc(C)c(Cl)c(C)c12 [Compound 7, 3-chloro-N-(3-methoxypropyl)-2,4-dimethylpyrido[3′,2′:4,5]thieno[2,3-d]pyridazin-8-amine hydrochloride]
5 | 0.081 µM | 100% | Cc1nc2sc3c(NC4CC4)nncc3c2c(C)c1Cl [Compound 11, 3-chloro-N-cyclopropyl-2,4-dimethylpyrido[3′,2′:4,5]thieno[2,3-d]pyridazin-8-amine hydrochloride]
6 |  | 99.4% | Cc1nnc2sc3c(NCc4ccc(C(C)(C)O)cc4)nncc3c2c1C [Compound 12, 2-(4-(((3,4-dimethylthieno[2,3-c:4,5-d′]dipyridazin-8-yl)amino)methyl)phenyl)propan-2-ol]
7 | 0.727 µM | 91.9% | [2H]C([2H])(Nc1nncc2c1sc1nnc(C)c(C)c12)c1ccc(C(C)(C)O)cc1 [Compound 13, 2-(4-(((3,4-dimethylthieno[2,3-c:4,5-d′]dipyridazin-8-yl)amino)methyl-d2)phenyl)propan-2-ol]
8 | 0.746 µM | 89.4% | [2H]C([2H])([2H])C(O)(c1ccc(CNc2nncc3c2sc2nnc(C)c(C)c23)cc1)C([2H])([2H])[2H] [Compound 14, 2-(4-(((3,4-dimethylthieno[2,3-c:4,5-d′]dipyridazin-8-yl)amino)methyl)phenyl)propan-1,1,1,3,3,3-d6-2-ol]
9 |  | 95.8% | Cc1nnc2sc3c(N4CCCC4)nncc3c2c1C [Compound 15, 3,4-dimethyl-8-(pyrrolidin-1-yl)thieno[2,3-c:4,5-d′]dipyridazine]
10 | 0.779 µM | 77.4% | Cc1nnc2sc3c(NCc4ccc(C(C)(C)CO)cc4F)nncc3c2c1C [Compound 16, 2-(4-(((3,4-dimethylthieno[2,3-c:4,5-d′]dipyridazin-8-yl)amino)methyl)-3-fluorophenyl)-2-methylpropan-1-ol]
11 |  | 86.7% | COc1ccc(CNc2nncc3c2sc2nnc(C)c(C)c23)cc1F [Compound 17, N-(3-fluoro-4-methoxybenzyl)-3,4-dimethylthieno[2,3-c:4,5-d′]dipyridazin-8-amine]
12 | 0.56 µM | 72.7% | Cc1nnc2sc3c(NCc4ccc(-n5cccn5)cc4)nncc3c2c1C [Compound 18, N-(4-(1H-pyrazol-1-yl)benzyl)-3,4-dimethylthieno[2,3-c:4,5-d′]dipyridazin-8-amine]
13 | 2.11 µM | 51.3% | Cc1nnc2sc3c(N4CC(Oc5cccnc5)C4)nncc3c2c1C [Compound 19, 3,4-dimethyl-8-(3-(pyridin-3-yloxy)azetidin-1-yl)thieno[2,3-c:4,5-d′]dipyridazine]
14 | 0.214 µM | 70.3% | Cc1nnc2sc3c(N4CC[C@H](Oc5cccnc5)C4)nncc3c2c1C [Compound 20, (S)-3,4-dimethyl-8-(3-(pyridin-3-yloxy)pyrrolidin-1-yl)thieno[2,3-c:4,5-d′]pyridazine]
15 | 1.63 µM | 50.4% | Cc1nc2sc3c(N4CCCC4)nnc(C)c3c2c(C)c1Cl [Compound 21, 3-Chloro-2,4,5-trimethyl-8-(pyrrolidin-1-yl)pyrido[3′,2′:4,5]thieno[2,3-d]pyridazine]
